Parameters in all cases: key: 0: normal development; 1: Less damaged; 2: Slightly damaged; 3: Moderately damaged; 4: Severely damaged; 5: All killed
The test system of test [1] is Large crabgrass. Briefly: Soil treatment test for upland field. The format is in vivo, Digitaria adscendens. The conditions noted are these: 500 g/ha, glass house 25° C., 3 weeks. The method, boiled down: (§1)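 Herbicidal effect graded on a 0–5 scale (0 normal development, 5 all killed) after 3 weeks in a glasshouse at about 25° C. Compound applied as a soil-surface spray at 500 g/ha right after sowing into Ube alluvial soil; spray water contained 0.05% surfactant.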

For test [2], the system named is cotton. Briefly: Foliar spread test for upland field. The conditions noted are these: foliar spray 500 ppm, 3 weeks, rank vs non-treated. It counts as in vivo. The method, boiled down:
(§2)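 Crops and weeds grown about 2 weeks in volcanic ash soil in a glasshouse, then sprayed with wettable-powder formulations diluted to 500 ppm in water with 0.5% surfactant. After 3 weeks at 25 °C, injury scored visually 0 (normal) to 5 (all killed).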

Test [3] concerns corn. Briefly: Foliar spread test for upland field. It counts as in vivo. The conditions noted are these: foliar spray 500 ppm, 3 weeks, rank vs non-treated. The method, boiled down:
as §2

The subject of test [4] is wheat. The test is described as follows: Foliar spread test for upland field. The format is in vivo. The conditions noted are these: foliar spray 500 ppm, 3 weeks, rank vs non-treated. The method, boiled down: as §2
Test [5] relates to soybean. Briefly: Foliar spread test for upland field. It counts as in vivo. The conditions noted are these: foliar spray 500 ppm, 3 weeks, rank vs non-treated. The method, boiled down:
as §2

The test system of test [6] is solgum. The test is described as follows: Foliar spread test for upland field. It counts as in vivo. The conditions noted are these: foliar spray 500 ppm, 3 weeks, rank vs non-treated. The method, boiled down: as §2
The subject of test [7] is sugar beat. Briefly: Foliar spread test for upland field. It counts as in vivo. The conditions noted are these: foliar spray 500 ppm, 3 weeks, rank vs non-treated. The method, boiled down: as §2
Test [8] concerns Large crabgrass. The test is described as follows: Foliar spread test for upland field. It counts as in vivo, Digitaria adscendens. The conditions noted are these: foliar spray 500 ppm, 3 weeks, rank vs non-treated. The method, boiled down:
(§3)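 Two-week-old glasshouse seedlings on volcanic ash soil were treated by foliar spray at 500 ppm, with 0.5% surfactant in the diluent. Effects were graded visually after three weeks, from 0 for no injury to 5 for complete kill.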

For test [9], the system named is bulrush. The test is described as follows: Herbicidal test for paddy field. The format is in vivo, Scrips juncoides. The conditions noted are these: paddy field pot, 500 g/ha dropwise at 1.5 leaf stage of barnyardgrass, 3 weeks, rank vs non-treated. The method, boiled down: (§4)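 Under flooded conditions (3 cm water over Ube soil), each compound was delivered by pipet as a diluted wettable powder (0.05% surfactant) at 500 g/ha, timed to 1.5-leaf barnyardgrass. Plants stayed 3 weeks in a 25° C glasshouse before injury was graded from 0 (normal) to 5 (all killed).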

Test [10] relates to young rice plant. The test is described as follows: Herbicidal test for paddy field. The format is in vivo. The conditions noted are these: paddy field pot, 500 g/ha dropwise at 1.5 leaf stage of barnyardgrass, 3 weeks, rank vs non-treated. The method, boiled down:
as §4

The subject of test [11] is barnyardgrass. The test is described as follows: Soil treatment test for upland field. It counts as in vivo, Echinochloa crusgalli. The conditions noted are these: 500 g/ha, glass house 25° C., 3 weeks. The method, boiled down:
as §1

Test [12] deals with livid amaranth. Briefly: Soil treatment test for upland field. It counts as in vivo, Amaranthus lividus. The conditions noted are these: 500 g/ha, glass house 25° C., 3 weeks. The method, boiled down: as §1
In test [13] the test system is green foxtail. Briefly: Foliar spread test for upland field. It counts as in vivo, Setaria viridis. The conditions noted are these: foliar spray 500 ppm, 3 weeks, rank vs non-treated. The method, boiled down:
as §3

For test [14], the system named is flat sedge. Briefly: Herbicidal test for paddy field. It counts as in vivo, Cyperus serotinus. The conditions noted are these: paddy field pot, 500 g/ha dropwise at 1.5 leaf stage of barnyardgrass, 3 weeks, rank vs non-treated. The method, boiled down:
as §4

In test [15] the test system is barnyardgrass. Briefly: Foliar spread test for upland field. It counts as in vivo, Echinochloa crusgalli. The conditions noted are these: foliar spray 500 ppm, 3 weeks, rank vs non-treated. The method, boiled down:
as §3

As to `CCC(Oc1ccc(F)c(C(F)(F)F)c1)c1nc2cc(F)c(F)cc2o1` (centres unmarked) [Compound 284], the entries for the “Effects Large crabgrass” value in test [1] and in test [8] were 5 and 4, respectively. In [2], the “Effects Cotton” value amounted to 3. Besides, in test [3], the “Effects Corn” value was 3. The “Effects Wheat” value in [4] was determined as 2. The “Effects Soybean” value in test [5] is given as 5. For the same compound, the “Effects Solgum” value in test [6] is recorded as 3. In [7], the “Effects Sugar beat” value is on record as 4. Besides, the “Effect Bulrush” value in test [9] was 4. In test [10], the “Effect Young rice plant” value is on record as 2. Further, the “Effects Barnyardgrass” value in test [11] is 5; in test [15] it was 1. In addition, the “Effects Livid amaranth” value in test [12] was found to be 5. For the same compound, in test [13], the “Effects Green foxtail” value is reported as 4. Also, in test [14], the “Effect Flat sedge” value was determined as 4.
Take `CCC(Oc1cccc(C(F)(F)F)c1)c1nc2cc(F)ccc2o1` (centres unmarked) [Compound 120]: the “Effects Large crabgrass” value in test [1] is listed as 5; in [8] it was 1. The “Effects Cotton” value in test [2] is recorded as 2. Further, in test [3], the “Effects Corn” value came to 3. Also, the “Effects Wheat” value in test [4] worked out at 2. In test [5], the “Effects Soybean” value was 5. Besides, in [6], the “Effects Solgum” value turned out to be 2. The “Effects Sugar beat” value in test [7] worked out at 5. Also, the “Effect Bulrush” value in test [9] was 3. The “Effect Young rice plant” value in test [10] was 1. Also, the entries for the “Effects Barnyardgrass” value in test [11] and in test [15] were 4 and 1, respectively. For the same compound, in test [12], the “Effects Livid amaranth” value amounted to 3. The “Effects Green foxtail” value in [13] is 3. Also, in test [14], the “Effect Flat sedge” value stood at 2.
In the case of `CCC(Oc1cccc(OC(F)(F)F)c1)c1nc2cc([N+](=O)[O-])ccc2o1` (centres unmarked) [Compound 450], the “Effects Large crabgrass” value in [1] is 5; in test [8] it was 4. Moreover, the “Effects Cotton” value in test [2] stood at 5. The “Effects Corn” value in test [3] amounted to 3. In addition, in test [4], the “Effects Wheat” value came out at 2. Further, in test [5], the “Effects Soybean” value was 4. Further, the “Effects Solgum” value in [6] is 3. In addition, in [7], the “Effects Sugar beat” value is 5. For the same compound, the “Effect Bulrush” value in [9] worked out at 4. The “Effect Young rice plant” value in test [10] came out at 1. The figures for the “Effects Barnyardgrass” value in [11] and in [15] were 5 and 3, respectively. The “Effects Livid amaranth” value in test [12] is 5. Also, in test [13], the “Effects Green foxtail” value was found to be 3. Besides, in test [14], the “Effect Flat sedge” value was 3.
For the compound `CCC(Oc1ccc(F)c(C(F)(F)F)c1)c1nc2cc(Cl)c(C)cc2o1` (centres unmarked) [Compound 340], the “Effects Large crabgrass” value in [1] was found to be 5; in test [8], 4. The “Effects Cotton” value in test [2] is reported as 3. In [3], the “Effects Corn” value is recorded as 2. For the same compound, the “Effects Wheat” value in test [4] is reported as 2. Further, the “Effects Soybean” value in [5] was found to be 3. For the same compound, in [6], the “Effects Solgum” value amounted to 2. In addition, in test [7], the “Effects Sugar beat” value turned out to be 3. Moreover, in [9], the “Effect Bulrush” value is listed as 4. For the same compound, in [10], the “Effect Young rice plant” value turned out to be 0. Also, the “Effects Barnyardgrass” value in test [11] stood at 4; in test [15], 2. For the same compound, in test [12], the “Effects Livid amaranth” value amounted to 5. Besides, the “Effects Green foxtail” value in test [13] was 4. Further, the “Effect Flat sedge” value in [14] is recorded as 2.
For the compound `CCCC(Oc1cccc(C(F)(F)F)c1)c1nc2cc(C#N)ccc2o1` (centres unmarked) [Compound 192], the “Effects Large crabgrass” value in [1] came to 5; in test [8] it was 3. Besides, the “Effects Cotton” value in test [2] was found to be 3. For the same compound, in [3], the “Effects Corn” value is listed as 2. Further, in test [4], the “Effects Wheat” value amounted to 2. For the same compound, the “Effects Soybean” value in test [5] turned out to be 3. Also, the “Effects Solgum” value in test [6] was found to be 2. In test [7], the “Effects Sugar beat” value is listed as 4. Also, the “Effect Bulrush” value in test [9] was 4. In addition, the “Effect Young rice plant” value in [10] is on record as 1. Also, the “Effects Barnyardgrass” value amounted to 3 in [11] and 2 in test [15]. The “Effects Livid amaranth” value in test [12] is on record as 5. Also, in [13], the “Effects Green foxtail” value amounted to 5. For the same compound, in test [14], the “Effect Flat sedge” value was found to be 4.
As for `CCC(Oc1ccc(F)c(C(F)(F)F)c1)c1nc2cc(F)ccc2o1` (centres unmarked) [Compound 119, 1-(5-fluorobenzoxazol-2-yl)-1-(4-fluoro-3-(trifluoromethyl)phenoxy)propane], the “Effects Large crabgrass” value in test [1] came out at 5; in [8] it was 1. Also, the “Effects Cotton” value in [2] was determined as 1. Moreover, the “Effects Corn” value in [3] was determined as 2. In test [4], the “Effects Wheat” value is 1. Besides, the “Effects Soybean” value in test [5] is reported as 2. Further, the “Effects Solgum” value in test [6] is recorded as 1. In addition, the “Effects Sugar beat” value in [7] stood at 3. Also, the “Effect Young rice plant” value in test [10] amounted to 1. The “Effects Barnyardgrass” value came out at 5 in [11] and 1 in [15]. Also, in test [12], the “Effects Livid amaranth” value is given as 5. Also, the “Effects Green foxtail” value in test [13] was 1. The “Effect Flat sedge” value in [14] was 2.
Consider `CCC(Oc1cccc(C(F)(F)F)c1)c1nc2cc(C#N)ccc2o1` (centres unmarked) [Compound 190], for which the “Effects Large crabgrass” value is on record as 5 in [1] and 3 in test [8]. Besides, the “Effects Cotton” value in [2] stood at 3. For the same compound, the “Effects Corn” value in [3] worked out at 2. The “Effects Wheat” value in test [4] was 2. Also, in test [5], the “Effects Soybean” value stood at 5. Further, in [6], the “Effects Solgum” value worked out at 3. Moreover, the “Effects Sugar beat” value in [7] amounted to 3. Moreover, the “Effect Young rice plant” value in test [10] was found to be 3. The “Effects Barnyardgrass” value in test [11] is given as 5; in test [15], 3. For the same compound, the “Effects Livid amaranth” value in [12] is recorded as 5. Moreover, the “Effects Green foxtail” value in test [13] was 5. Also, the “Effect Flat sedge” value in test [14] amounted to 3.
Consider `CCC(Oc1ccc(F)c(C(F)(F)F)c1)c1nc2cc([N+](=O)[O-])ccc2o1` (centres unmarked) [Compound 177], for which the “Effects Large crabgrass” value in test [1] is listed as 5; in [8], 2. Besides, in test [2], the “Effects Cotton” value is 3. Also, the “Effects Corn” value in test [3] is 2. In [4], the “Effects Wheat” value amounted to 2. Besides, the “Effects Soybean” value in test [5] stood at 5. In test [6], the “Effects Solgum” value stood at 2. For the same compound, the “Effect Bulrush” value in [9] is reported as 5. Also, the “Effect Young rice plant” value in [10] was 2. In addition, the “Effects Barnyardgrass” value is on record as 3 in test [11] and 2 in test [15]. Further, the “Effects Livid amaranth” value in test [12] is reported as 5. Further, the “Effects Green foxtail” value in [13] amounted to 5. For the same compound, the “Effect Flat sedge” value in [14] is recorded as 3.
As for `CCC(Oc1ccc(Cl)c(C(F)(F)F)c1)c1nc2cc(F)ccc2o1` (centres unmarked) [Compound 441], the “Effects Large crabgrass” value was 5 in test [1] and 2 in [8]. Moreover, the “Effects Cotton” value in test [2] is 3. The “Effects Corn” value in test [3] was determined as 2. Moreover, the “Effects Wheat” value in test [4] is on record as 2. For the same compound, the “Effects Soybean” value in [5] worked out at 3. For the same compound, in test [6], the “Effects Solgum” value is listed as 2. The “Effects Sugar beat” value in test [7] worked out at 4. Also, in [10], the “Effect Young rice plant” value came out at 1. Moreover, the “Effects Barnyardgrass” value was 5 in test [11] and 2 in test [15]. Besides, the “Effects Livid amaranth” value in test [12] is reported as 5. Moreover, in [13], the “Effects Green foxtail” value is reported as 3. In addition, in test [14], the “Effect Flat sedge” value stood at 2.

The values above are taken from patent US6706664B1, “Benzoxazole compounds, process for the preparation thereof and herbicides” (UBE Industries, Ltd., priority 1999, dated 2004).
